Where “and” joins values, the source holds several entries; their conditions need not be identical. Equal values may be shown once.
Tests used:
[1] = Metabolic stability in normal Balb/c mice (RP-HPLC of urine, blood, liver and kidney homogenates); assay type: in vivo; details: 30 min p.i., % intact on RP-HPLC
Description: Urine, blood, liver and kidneys of normal Balb/c mice injected with ^68Ga-siderophores and treated as described previously were collected 30 min after injection. The urine sample was directly injected onto the RP-HPLC column. Blood samples were precipitated with acetonitrile and centrifuged for 2 min, and the supernatant was injected onto the RP-HPLC column. Liver and kidneys were washed in the ice-cold TRIS buffer and liquidized using a mixer in a falcon tube containing 1 ml of TRIS buffer. The liver and kidney homogenates obtained were mixed with acetonitrile and centrifuged for 2 min, and the supernatant was injected onto the RP-HPLC column. In all cases 1 min fractions of the column eluate were collected and measured in a γ-counter. Samples were not collected at 90 min after injection because the measured activity was already low in the samples obtained 30 min after injection. All metabolic studies were performed using a previously described HPLC method.

A. fumigatus [2] = assay: Ex vivo biodistribution in rat A. fumigatus infection model, standard; set-up: species or system Lewis rats
Description: (§1) The A. fumigatus (A29) isolate was grown on Sabouraud dextrose agar (BD) for 5 days at 37 °C, and the conidia were harvested in 2 ml of sterile NaCl by gently rubbing with a pipette tip. The conidia suspension was transferred into a sterile 50 ml plastic tube. After homogenization (vortex) and filtration (40 μm nylon cell strainer; BD), the suspension was counted in a Neubauer chamber and adjusted to the volitional concentration in the range 1 × 10^5 to 1 × 10^9 conidia per millilitre.
(§2) Female or male Lewis rats (2–3 months old), weighing 200–250 g, were treated as described previously. Briefly, the rats received repeated intraperitoneal injections of cyclophosphamide to induce neutropenia before A. fumigatus administration. To prevent bacterial superinfection, the animals were given antibiotics throughout the experiment. Fungal infection was established by intratracheal administration of 100–300 μl of A. fumigatus inoculum in various concentrations (1 × 10^5 to 1 × 10^9 conidia per millilitre). Animals were injected intravenously 1–3 days (depending on the severity of infection) after A. fumigatus administration with ^68Ga-labelled siderophore (10–20 MBq and 1–2 μg of siderophore per rat). The rats were imaged or killed by overdosing with thiopental (Sandoz, Kundl, Austria) 2 h after injection. Various organs and tissues (blood, spleen, kidneys, liver and lungs) were removed and radioactivity was measured in a γ-counter. The excised organs were investigated for the presence of fungi, as described below.
(§3) The excised organs were homogenized in a petri dish using a sterile surgical blade and transferred to Sabouraud dextrose agar (BD) plates. The plates were incubated at 37 °C and examined daily for 7 days. […] Severe infection was defined as the presence of severe fungal growth 1 day after incubation, mild infection was defined as the presence of minor growth up to 3 days after incubation, and no infection was defined as lack of growth within 1 week of incubation.

[3] = Biodistribution in normal Balb/c mice; assay type: in vivo; details: normal noninfected Balb/c mice, i.v. tail vein
Description: Normal noninfected Balb/c mice (female, 6 weeks old) were injected with ^68Ga-siderophore (2 MBq and 0.1–0.2 μg of siderophore per mouse) into the tail vein. Animals were killed by cervical dislocation 30 min and 90 min after injection. The organs and tissues (blood, spleen, pancreas, stomach, intestines, kidneys, liver, heart, lungs, muscle and femur) were removed and radioactivity was counted in a γ-counter. The results are expressed as percentage of injected dose per gram of tissue.

[4] = Log P of ^68Ga-siderophores; assay type: physicochemical; details: determined as described previously [20]
Description: (§4) TAFC and FOXE were labelled with ^68Ga using acetate buffer at room temperature for 15 min (TAFC) and at 80 °C for 20 min (FOXE). For all in vitro and in vivo studies, the pH of the final product was adjusted with 1.1 M sodium acetate to pH 6–7. The radiochemical purity, log P, protein binding and stability of ^68Ga-siderophores in various media were determined, as described previously.

Stability in 0.1 M FeCl3 = assay type: physicochemical
Description: as §4

A. fumigatus [5] = assay: Ex vivo biodistribution in rat A. fumigatus infection model, iron preload; set-up: species or system Lewis rats
Description: as §1, §2
Rats were treated as in the ‘standard’ infection model above, except that iron solution (FerMed; Medice, Iserlohn, Germany) 10 mg/kg was injected intraperitoneally three times (1 week, 4 days and 1 day) before A. fumigatus administration.
as §3

[6] = system: A. fumigatus wild-type ATCC46645; assay: In vitro uptake of ^68Ga-siderophores by A. fumigatus cultures; assay type: cell-based, Aspergillus fumigatus; details: room temperature
Description: The Aspergillus strain used for in vitro studies was A. fumigatus wild-type ATCC46645 (American Type Culture Collection) cultured at 37 °C in Aspergillus minimal medium, containing 1 % glucose as the carbon source, 20 mM glutamine as the nitrogen source, salts and trace elements, as described previously. Iron-sufficient media contained […] FeSO4. For preparation of iron-deficient media, iron addition was omitted. Iron-deficient conditions were verified by detection of extracellular siderophore production, which is suppressed by iron.
Uptake by A. fumigatus in iron-deficient and iron-sufficient cultures was studied. For the monitoring of uptake over time, ^68Ga-siderophores (5 ng) were incubated in microbial media for 10, 20, 30, 45, 60 and 90 min at room temperature in 96-well plates (Millipore, Billerica, MA). For the monitoring of uptake blocking, excess of ferri-siderophore (Fe-TAFC or Fe-FOXE) and/or sodium azide was used. ^68Ga-siderophores were incubated in iron-deficient and iron-sufficient media for 45 min at room temperature in 96-well plates. The incubation was interrupted in both cases by filtration of the medium and rapid rinsing with ice-cold TRIS buffer. The filters were collected and counted in a γ-counter.

[7] = Protein binding in human serum; assay type: in vitro ADME
Description: as §4

Stability in human serum = assay type: in vitro ADME
Description: as §4

A. fumigatus [8] = assay: PET imaging in rat A. fumigatus infection model; assay type: in vivo, Lewis rats; details: infected rats, lungs, mean ± sd
Description: as §2
PET images were acquired with an Inveon animal PET/CT scanner (Siemens Preclinical Solutions, Knoxville, TN) with an intrinsic spatial resolution of 1.5 mm. The animals were placed in a prone position. Static PET images were acquired over 30 min starting 30 min after intravenous injection of ^68Ga-siderophore. Dynamic PET imaging was started upon injection and continued up to 60 min after injection. In addition, combined PET/CT scans were performed for anatomical reference. PET emission scans were acquired for 30 min, preceded by CT scans (spatial resolution 113 μm, 80 kV, 500 μA, exposure time 300 ms). After imaging, animals were killed by CO2/O2. Scans were reconstructed using Inveon Acquisition Workplace software (version 1.5; Siemens Preclinical Solutions, Knoxville, TN) using a 3-D ordered subset expectation maximization/maximum a posteriori (OSEM3D/MAP) algorithm with the following parameters: matrix 256 × 256 × 159, pixel size 0.43 × 0.43 × 0.8 mm^3 and a MAP prior β-value of 1.5.

Stability in 6 mM DTPA = assay type: physicochemical
Description: as §4

[9] = iron preload model, 2 h after injection

O=C1CCC(=O)N([O-])CCCCCNC(=O)CCC(=O)N([O-])CCCCCNC(=O)CCC(=O)N([O-])CCCCCN1.[68Ga+3] [^68Ga-FOXE, ferrioxamine E]
Stability in kidney homogenate (%) [1]: 97.6%
Stability in liver homogenate (%) [1]: 71.3%
Stability in urine (%) ([1]; γ-counter): 95.9%
Stability in blood (%) ([1]; acetonitrile precipitation): 97.7%
Lung/blood ratio, control (mean ± sd) (A. fumigatus [2]; 2 h after injection): 1.48 ± 0.33 (n=5)
Lung/blood ratio, mild infection (mean ± sd) (A. fumigatus [2]; 2 h after injection): 5.45 ± 5.57 (n=4)
Lung/blood ratio, severe infection (mean ± sd) (A. fumigatus [2]; 2 h after injection): 62.35 ± 77.98 (n=5)
Lung/kidneys ratio, control (mean ± sd) (A. fumigatus [2]; 2 h after injection): 0.07 ± 0.02 (n=5)
Lung/kidneys ratio, mild infection (mean ± sd) (A. fumigatus [2]; 2 h after injection): 0.38 ± 0.42 (n=4)
Lung/kidneys ratio, severe infection (mean ± sd) (A. fumigatus [2]; 2 h after injection): 3.33 ± 2.85 (n=5)
Lung/liver ratio, control (mean ± sd) (A. fumigatus [2]; 2 h after injection): 0.87 ± 0.27 (n=5)
Lung/liver ratio, mild infection (mean ± sd) (A. fumigatus [2]; 2 h after injection): 5.45 ± 5.85 (n=4)
Lung/liver ratio, severe infection (mean ± sd) (A. fumigatus [2]; 2 h after injection): 47.79 ± 39.48 (n=5)
Mild infection (%ID/g - lungs) (mean ± sd) (A. fumigatus [2]; mildly infected rats, lungs ex vivo 2 h after injection, n in cell): 0.48 ± 0.54 %ID/g and 0.48 ± 0.54 (n=4) %ID/g
Control (%ID/g - lungs) (mean ± sd) (A. fumigatus [2]; rats showing no infection, lungs ex vivo 2 h after injection, n in cell): 0.04 ± 0.02 %ID/g and 0.04 ± 0.02 (n=5) %ID/g
Severe infection (%ID/g - lungs) (mean ± sd) (A. fumigatus [2]; severely infected rats, lungs ex vivo 2 h after injection, γ-counter, n in cell): 3.45 ± 1.00 (n=5) %ID/g
Blood level ([3]; 30 min after injection): 2.4 ± 0.86 %ID/g
Intestinal accumulation ([3]; 30 min after injection): 4.6 ± 1.42 %ID/g
Intestinal accumulation ([3]; 90 min after injection): 2.4 ± 0.85 %ID/g
Log P [4]: −1.65
Stability in 0.1-M FeCl3 (%) (Stability in 0.1 M FeCl3; incubation time 30 min): 92.9%
Stability in 0.1-M FeCl3 (%) (Stability in 0.1 M FeCl3; incubation time 60 min): 91.8%
Stability in 0.1-M FeCl3 (%) (Stability in 0.1 M FeCl3; incubation time 120 min): 94.5%
Severe infection (%ID/g - lungs) (A. fumigatus [5]; iron preload model (10 mg/kg i.p. three times), severely infected rats, lungs 2 h after injection, n in cell): 1.72 (n=1) %ID/g
Lung/blood ratio, control (A. fumigatus [5]; [9]): 0.64 (n=2)
Lung/blood ratio, mild infection (A. fumigatus [5]; [9]): 0.81 (n=2)
Lung/blood ratio, severe infection (A. fumigatus [5]; [9]): 2.41 (n=1)
Lung/kidneys ratio, control (A. fumigatus [5]; [9]): 0.06 (n=2)
Lung/kidneys ratio, mild infection (A. fumigatus [5]; [9]): 0.12 (n=2)
Lung/kidneys ratio, severe infection (A. fumigatus [5]; [9]): 0.11 (n=1)
Lung/liver ratio, control (A. fumigatus [5]; [9]): 0.58 (n=2)
Lung/liver ratio, mild infection (A. fumigatus [5]; [9]): 1.17 (n=2)
Lung/liver ratio, severe infection (A. fumigatus [5]; [9]): 5.93 (n=1)
Mild infection (%ID/g - lungs) (A. fumigatus [5]; iron preload model, mildly infected rats, lungs 2 h after injection, n in cell): 0.14 (n=2) %ID/g
Control (%ID/g - lungs) (A. fumigatus [5]; iron preload model, rats showing no infection, lungs 2 h after injection, n in cell): 0.04 (n=2) %ID/g
Uptake by A. fumigatus in iron-deficient cultures ([6]; 5 ng ^68Ga-siderophore, 10-90 min, 96-well plates, filtration, γ-counter): rapid uptake
Blocking of uptake with excess of ferri-siderophore and/or sodium azide ([6]; iron-deficient cultures, 45 min incubation): could be blocked
Protein binding (%) ([7]; incubation time 30 min): 0.27%
Protein binding (%) ([7]; incubation time 60 min): 0.24%
Protein binding (%) ([7]; incubation time 120 min): 0.53%
Stability in all of the tested media (Stability in human serum; human serum, 0.1 M FeCl3 and 6 mM DTPA, summary bound over all media): ≥ 90%
Stability in human serum (%) (Stability in human serum; incubation time 30 min): 99.9%
Stability in human serum (%) (Stability in human serum; incubation time 60 min): 99.9%
Stability in human serum (%) (Stability in human serum; incubation time 120 min): 99.9%
SUV (A. fumigatus [8]; calculated from PET imaging studies, n=10 (table)): 1.00 ± 0.81 (n=10)
Target/non-target ratio (A. fumigatus [8]; calculated from all PET imaging studies, n=13): 6.64 ± 2.91 (n=13)
Stability in 6-mM DTPA (%) (Stability in 6 mM DTPA; incubation time 30 min): 94.3%
Stability in 6-mM DTPA (%) (Stability in 6 mM DTPA; incubation time 60 min): 93.8%
Stability in 6-mM DTPA (%) (Stability in 6 mM DTPA; incubation time 120 min): 93.2%
